Measured values as given in patent US4929445A, “Method for inhibiting Listeria monocytogenes using a bacteriocin” (Microlife Technics, Inc., priority 1988, dated 1990).

Legend:
Listeria monocytogenes [1] = test: Activity of PA-1 against Listeria monocytogenes in dressed Cottage cheese; assay type: cell-based
Method: Listeria monocytogenes was added to dressed Cottage cheese (pH 5.1) at a rate of 6.5×10^3 cfu/gram of dressed Cottage cheese. The bacteriocin powder to Example 1 (PA-1) was added to the Cottage cheese at a rate of 10 or 50 U (units)/g dressed Cottage cheese. The samples were mixed and incubated at 4° C. and aliquots were removed and plated onto McBride's Agar (Difco, Detroit, Mich.) and incubated at 32° C. and examined for growth of Listeria monocytogenes.

[2] = test system: Listeria monocytogenes LM01; test: MIC and MBC by two-fold broth dilution; assay type: cell-based; conditions: APT broth, 24 hours at 32° C.
Method: Bacteriocin PA-1 powder was dissolved in APT broth and two-fold serially diluted to concentrations ranging from 1000 U/ml to 2.0 U/ml. Approximately 1×10^3 Listeria monocytogenes/ml were added to each of the tubes which then were incubated for 24 hours at 32° C. The MIC value was the lowest concentration tube displaying no visible turbidity.

[3] = cited from earlier work
Listeria monocytogenes [4] = test: Activity of PA-1 against Listeria monocytogenes in half and half cream; assay type: cell-based; conditions: half and half cream pH 6.7, 4° C., LM 4.3 × 10^3 cells per ml, PA-1 50 U/ml
Method: Listeria monocytogenes was added to the cream (pH 6.7) at a rate of 4.3×10^3 cfu/ml of cream. The bacteriocin powder PA-1 was added to the cream at a rate of 10 or 50 U/ml cream. The samples were mixed and incubated at 4° C. and aliquots were removed and examined for growth of Listeria monocytogenes .

Listeria monocytogenes [5] = test: Effect of PA-1 powder on an exponential culture (turbidity at 660 nm); assay type: cell-based; conditions: 200 U/ml and 500 U/ml added after 3.75 hours, APT broth, 32° C.
Method: The PA-1 powder was added to a L. monocytogenes culture at 200 U(units)/ml or 500 U/ml and turbidity (which is an indicator of the number of cells) was monitored over time at 660 nanometers. The symbols used are , control (no PA-1 added); .circle., 200 U/ml PA-1; .quadrature., 500 U/ml PA-1.
Sterile PA-1 bacteriocin powder was added to an exponential culture of Listeria monocytogenes at a rate of 200 U/ml of broth and 500 U/ml of broth. Listeria monocytogenes was grown in APT broth at 32° C. Absorbance was followed over time at 660 nm.

[6] = test system: Pediococcus pentosaceus FBB63C; test: MIC and MBC by two-fold broth dilution; assay type: cell-based; conditions: APT broth, 24 hours at 32° C.
[7] = test system: Lactococcus, Streptococcus, Staphylococcus, Micrococcus and Lactobacillus strains; conditions: Lactococcus lactis, L. lactis subsp. diacetylactis, L. cremoris, Streptococcus thermophilus, Staphylococcus aureus, xylosus, epidermidis, carnosus, Micrococcus varians, sodonensis, Lactobacillus acidophilus, bulgaricus; cited from earlier work
Listeria monocytogenes [8] = test: Activity of PA-1 against Listeria monocytogenes in cheese sauce; assay type: cell-based; conditions: cheese sauce pH 5.25, 4° C., LM 5.3 × 10^3 cells per gram
Method: Listeria monocytogenes was added to the cheese sauce (pH 5.25) at a rate of 5.3×10^3 cfu/g of cheese sauce. The bacteriocin powder PA-1 was added to the cheese sauce at a rate of 10 or 50 U/g of sauce. The samples were mixed and incubated at 4° C. and aliquots were removed and examined for growth of Listeria monocytogenes.

In the case of “PA-1: bacteriocin of about 16,500 daltons produced by Pediococcus acidilactici NRRL-B-18050 (PAC 1.0); tested as lyophilized culture supernatant powder with nonfat dry milk”, the “Growth of Listeria at 24 h” value (Listeria monocytogenes [1]; dressed Cottage cheese pH 5.1, 4° C., LM 6.5 × 10^3 cells per gram, PA-1 10 U/g) is reported as 0 cfu/g, the “Growth of Listeria at 24 h” value (Listeria monocytogenes [1]; dressed Cottage cheese pH 5.1, 4° C., LM 6.5 × 10^3 cells per gram, PA-1 50 U/g) is reported as 0 cfu/g and the “Growth of Listeria at 24 h” value (Listeria monocytogenes [1]; dressed Cottage cheese, 4° C., no LM added, PA-1 50 U/g) is reported as 0 cfu/g. The MBC ([2]; no CFU on APT agar) was 7.8 U/ml, the MIC ([2]; about 1×10^3 cells/ml, no visible turbidity) was less than 2.0 U/ml and the “Effect of heating on the bacteriocin” value ([3]; heating to 100° C. in water) was “unaffected”. The “Effect of proteolytic enzymes on the bacteriocin” value ([3]; in vitro mixing with protease, papain or alpha-chymotrypsin) was “inactivated”, the “Effect of other enzymes on the bacteriocin” value ([3]; phospholipase C, lysozyme, Dnase and RNase) was “unaffected” and the “Growth of Listeria at 24 h” value (Listeria monocytogenes [4]) was 0 cfu/g. For the same substance, the “Effect on exponential culture, absorbance at 660 nm” value (Listeria monocytogenes [5]) was “not only inhibitory but also bacteriocidal”, the MBC ([6]; no CFU on APT agar) was 31.3 U/ml and the MIC ([6]; no visible turbidity) was 7.8 U/ml. For the same substance, the “Inhibitory activity against other gram positive bacteria” value [7] was “No activity was found”, the “Growth of Listeria at 24 h” value (Listeria monocytogenes [8]; PA-1 10 U/g) was 4.0 × 10^2 cfu/g and the “Growth of Listeria at 24 h” value (Listeria monocytogenes [8]; PA-1 50 U/g) was 0 cfu/g.
